Assay [1] has as its target T1, recombinant human MAGL enzyme (Homo sapiens, UniProt Q99685).
T1 construct: purchased Cayman Chemical 10007812
T1 sequence (Q99685 1-303): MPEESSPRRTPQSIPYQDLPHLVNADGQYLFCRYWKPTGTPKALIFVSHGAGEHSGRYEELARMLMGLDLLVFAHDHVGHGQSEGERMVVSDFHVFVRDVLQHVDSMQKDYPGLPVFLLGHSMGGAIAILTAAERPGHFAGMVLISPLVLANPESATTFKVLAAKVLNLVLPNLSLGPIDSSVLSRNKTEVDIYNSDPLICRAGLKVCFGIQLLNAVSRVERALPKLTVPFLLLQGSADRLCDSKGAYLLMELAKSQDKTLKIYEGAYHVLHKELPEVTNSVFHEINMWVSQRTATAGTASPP
Kind of assay: In vitro screening of activity on the recombinant human MAGL enzyme (4-NPA substrate, absorbance 405 nm). It counts as biochemical. The following applies: substrate 4-NPA, room temperature, 30 minutes. The method, then: The compound 4-nitrophenyl acetate (4-NPA Merck-Sigma Aldrich, 8430750025) was used as a substrate for the recombinant human MAGL enzyme (Cayman Chemical, 10007812). IC50 values were generated in microplates containing 96 wells. The catalytic reaction was carried out at room temperature, at a final volume of 200 µL in 10 mM Tris buffer at pH 7.2 containing 1 mM EDTA and 0.1 mg/ml BSA. A total of 150 µL of 4-NPA 133.3 µM in ethanol was added to 10 µL of DMSO containing the appropriate amount of compound (500 - 0.00256 µM). The reaction began with the addition of 40 µL of the MAGL enzyme (11 ng/well). […] After the reaction continued for 30 minutes, the absorbance values were then measured using a Victor X3 (PerkinElmer®) microplate reader at a wavelength of 405 nm. Two other analyzes were also performed in parallel: one reaction without compounds and the second containing neither compound nor enzyme. […] The IC50 values were calculated from the experimental data (absorbance) through the construction of dose-response curves.

The target in assay [2] is T1, recombinant human MAGL enzyme. The experiment in a line: Enzymatic kinetics experiments with scalar concentrations of 4-NPA (Michaelis-Menten, mixed-model inhibition fit). The following applies: compound 1-0.125 µM, 4-NPA 15-1400 µM. The assay is classed as biochemical. The procedure: In enzymatic kinetics experiments, compound 15 was tested in the presence of scalar concentrations of […]. It was added in staggered amounts (concentration range = 1-0.125 µM in DMSO) to a reaction mix containing staggered concentrations of 4-NPA (15-1400 µM in ethanol). Finally, the buffer solution containing the recombinant human MAGL enzyme (11 ng/well) was added. The enzymatic activity was measured at room temperature by recording the increase in absorbance corresponding to the increase in the concentration of […] using a Victor X3 microplate reader (PerkinElmer®). The absorbance was converted into enzymatic rate by making appropriate use of positive and negative controls. The experimental data were analyzed by […] regression analysis applying the inhibition fit of the mixed model (Fig. 1).

Assay [3] has the same target. Kind of assay: MAGL dilution assay with the recombinant human MAGL enzyme. The following applies: 20 µM vs 40X dilution (final 0.5 µM) vs 0.5 µM (Fig. 3). The assay is classed as biochemical. The procedure: […] The mixture containing the inhibitor and the enzyme was then diluted 40 times with the buffer solution. After 15 minutes of incubation, the reaction was started in a 160 µL aliquot with the addition of 40 µL of 4-NPA 500 µM in buffer and the enzyme activity was measured according to the procedure described above.
The % of inhibition of the MAGL enzyme was calculated from the measured absorbance. The absorbance measured in the presence of only enzyme with vehicle and without compound was considered as absence of inhibition (positive control), while the absorbance measured in the wells with only vehicle without enzyme and without compound was considered as 100% inhibition (negative control). Intermediate absorbance values with respect to these two extremes indicate enzymatic inhibition and are calculated as the difference between the absorbance value in the well with the compound and the absorbance value of the negative control, all scaled as a percentage considering as the maximum value the negative control and minimum value of minimum inhibition the positive control.
In dilution experiments, if compound 15 were an irreversible inhibitor, its inhibitory potency should not decrease upon dilution.

The subject of assay [4] is HCT116. Kind of assay: Cell viability assay (CellTiter-Glo) HCT116. It counts as cell-based. The conditions noted are these: Homo sapiens, HCT-116; cell viability after 96 hours; read-out: IC50 (µM, mean ± SD) HCT116. The procedure:
(§1) The following tumor cell lines, MDA-MB-231 (Cell Biolabs AKR-231), HCT116 (ATCC® CCL-247), CAOV3 (ATCC® HTB-75), OVCAR3 (ATCC® HTB-161) and SKOV3 (ATCC® HTB-77) were kept at 37 °C in a humidified atmosphere containing 5% CO2 according to the supplier. Cells (5 x 10^2) were plated in 96-well culture plates. The day after plating, the compounds were dissolved in DMSO and added at different concentrations to the medium (final DMSO concentration < 5%). The compounds were added to the cell culture at a concentration between 200 and 0.02 µM. Cell viability was measured after 96 hours with the CellTiter-Glo® Luminescent Cell Viability Assay kit in accordance with the supplier Promega (G7571) with a Tecan M1000 instrument. IC50 values were calculated from dose-response curves. The means were obtained from the triplicates (Table 2). Table 2. Cell viability inhibition activity (IC50, µM) of compound 15.

The test system of assay [5] is MDA-MB-231. Kind of assay: Cell viability assay (CellTiter-Glo) MDA-MB-231. It counts as cell-based. The conditions noted are these: Homo sapiens, cell viability after 96 hours, read-out: IC50 (µM, mean ± SD) MDA-MB-231. The procedure: as §1
In general terms: Cellular ATP, detected with luciferase, serves as a proxy for viable cell number.

Assay [6] concerns CAOV3. Kind of assay: Cell viability assay (CellTiter-Glo) CAOV3. The following applies: Homo sapiens, Caov-3; cell viability after 96 hours; read-out: IC50 (µM, mean ± SD) CAOV3. It counts as cell-based. The procedure: as §1
Assay [7] relates to OVCAR3. Kind of assay: Cell viability assay (CellTiter-Glo) OVCAR3. It counts as cell-based. The conditions noted are these: Homo sapiens, OVCAR-3; cell viability after 96 hours; read-out: IC50 (µM, mean ± SD) OVCAR3. The method, then: as §1
Assay [8] deals with SKOV3. Kind of assay: Cell viability assay (CellTiter-Glo) SKOV3. It counts as cell-based. The following applies: Homo sapiens, SK-OV-3; cell viability after 96 hours; read-out: IC50 (µM, mean ± SD) SKOV3. The method, then:
as §1

These results are taken from patent publication EP3889132B1, “MONOACYLGLYCEROL LIPASE (MAGL) INHIBITORS” (Università di Pisa, priority 2020, dated 2021).

A word on the IC50: it is the midpoint of a concentration-inhibition curve. The Ki is the dissociation constant of the complex between target and ligand, obtained from inhibition or displacement.

Regarding `CCCCCCCC(=O)Nc1cc(-c2ccc(O)c(F)c2)ccc1O` [Compound 4, N-(3'-Fluoro-4,4'-dihydroxy-[1,1'-biphenyl]-3-yl)octanamide], the IC50 in assay [1] worked out at 0.61 ± 0.03 µM.

In the case of `CCCCCCCCCCCC(=O)Nc1cc(-c2ccc(O)c(F)c2)ccc1O` [Compound 7, N-(3'-Fluoro-4,4'-dihydroxy-[1,1'-biphenyl]-3-yl)dodecanamide], the IC50 in assay [1] turned out to be 2.8 ± 0.3 µM.

In the case of `CCCCCCCCC(=O)Nc1cc(-c2ccc(O)c(F)c2)ccc1O` [Compound 5, N-(3'-Fluoro-4,4'-dihydroxy-[1,1'-biphenyl]-3-yl)nonanamide], the IC50 in assay [1] worked out at 2.9 ± 0.1 µM.

Consider `O=C(CCc1ccccc1)Nc1cc(-c2ccc(O)c(F)c2)ccc1O` [Compound 14, N-(3'-Fluoro-4,4'-dihydroxy-[1,1'-biphenyl]-3-yl)-3-phenylpropanamide], for which the IC50 in assay [1] turned out to be 2 ± 0.1 µM.

For `CCCCCCCCCCCCCCCC(=O)Nc1cc(-c2ccc(O)c(F)c2)ccc1O` [Compound 9, N-(3'-Fluoro-4,4'-dihydroxy-[1,1'-biphenyl]-3-yl)palmitamide], the IC50 in assay [1] was > 20 µM.

Turning to `CC(C)C(=O)Nc1cc(-c2ccc(O)c(F)c2)ccc1O` [Compound 10, N-(3'-Fluoro-4,4'-dihydroxy-[1,1'-biphenyl]-3-yl)isobutyramide], in assay [1], the IC50 is 19.7 ± 1 µM.

On to `CCCCC(=O)Nc1cc(-c2ccc(O)c(F)c2)ccc1O` [Compound 1, N-(3'-Fluoro-4,4'-dihydroxy-[1,1'-biphenyl]-3-yl)pentanamide], for which the IC50 in assay [1] worked out at 7.6 ± 0.1 µM.

`O=C(Cc1ccccc1)Nc1cc(-c2ccc(O)c(F)c2)ccc1O` [Compound 13, N-(3'-Fluoro-4,4'-dihydroxy-[1,1'-biphenyl]-3-yl)-2-phenylacetamide]: the IC50 in assay [1] came to 5.1 ± 0.5 µM.

`O=C(Nc1cc(-c2ccc(O)c(F)c2)ccc1O)c1ccccc1` [Compound 12, N-(3'-Fluoro-4,4'-dihydroxy-[1,1'-biphenyl]-3-yl)benzamide]: in assay [1], the IC50 came out at 6.9 ± 0.4 µM.

For `CCCCCCCCCCCCCC(=O)Nc1cc(-c2ccc(O)c(F)c2)ccc1O` [Compound 8, N-(3'-Fluoro-4,4'-dihydroxy-[1,1'-biphenyl]-3-yl)tetradecanamide], the IC50 in assay [1] came out at 2.5 ± 0.4 µM.

As for `O=C(Cc1cccc2ccccc12)Nc1cc(-c2ccc(O)c(F)c2)ccc1O` [Compound 17, N-(3'-Fluoro-4,4'-dihydroxy-[1,1'-biphenyl]-3-yl)-2-(naphtalen-1-yl)acetamide], the 50% inhibitory concentration (IC50) in assay [1] was 1.9 ± 0.1 µM.

With `CCCCCC(=O)Nc1cc(-c2ccc(O)c(F)c2)ccc1O` [Compound 2, N-(3'-Fluoro-4,4'-dihydroxy-[1,1'-biphenyl]-3-yl)hexanamide], in assay [1], the IC50 was 3.2 ± 0.2 µM.

`CCCCCCC(=O)Nc1cc(-c2ccc(O)c(F)c2)ccc1O` [Compound 3, N-(3'-Fluoro-4,4'-dihydroxy-[1,1'-biphenyl]-3-yl)eptanamide]: the half-inhibitory concentration (IC50) in assay [1] amounted to 1.1 ± 0.1 µM.

As for `CCCCCCCCCC(=O)Nc1cc(-c2ccc(O)c(F)c2)ccc1O` [Compound 6, N-(3'-Fluoro-4,4'-dihydroxy-[1,1'-biphenyl]-3-yl)decanamide], the IC50 in assay [1] amounted to 1.1 ± 0.1 µM.

Consider `CC(C)(C)C(=O)Nc1cc(-c2ccc(O)c(F)c2)ccc1O` [Compound 11, N-(3'-Fluoro-4,4'-dihydroxy-[1,1'-biphenyl]-3-yl)pivalamide], for which the IC50 in assay [1] was > 20 µM.

With `O=C(CCCCc1ccccc1)Nc1cc(-c2ccc(O)c(F)c2)ccc1O` [Compound 16, N-(3'-Fluoro-4,4'-dihydroxy-[1,1'-biphenyl]-3-yl)-5-phenylpentanamide], in assay [1], the IC50 came out at 1.1 ± 0.1 µM.

In the case of `O=C(CCCc1ccccc1)Nc1cc(-c2ccc(O)c(F)c2)ccc1O` [Compound 15, N-(3'-Fluoro-4,4'-dihydroxy-[1,1'-biphenyl]-3-yl)-4-phenylbutanamide], the IC50 in assay [1] stood at 0.34 ± 0.01 µM; in assay [4], 14 ± 2 µM; in assay [5], 75 ± 6 µM; in assay [6], 34 ± 4 µM; in assay [7] it was 75 ± 4 µM; in assay [8] it was 16 ± 2 µM. The Ki in assay [2] amounted to 0.146 µM. Also, in assay [3], the “Inhibition mechanism from percentage of inhibition after 40X dilution” value was “reversible inhibition”.
